Data on nine compounds can be found in US20220341943A1, “XBP1 ISOFORM MULTIPLEX ASSAY” (Randox Laboratories Ltd, priority 2019, published 2022).

Holding throughout (assay type): cell-based
Assay [1] has as its system XBP1s, MDA-MB-231 cells. In words: Immunoblot of XBP1 isoforms in MDA-MB-231 cells. Conditions: for XBP1s translation (immunoblot): Tg 48 h, Tm 1 μg/ml 16 h, BFA 0.5 μg/ml 16 h, DTT 4 mM 2 h; for XBP1s (immunoblot) under IRE1α RNase inhibition: 4μ8C 32 μM or MKC-8866 20 μM, 48 h. The procedure:
(§1) Cell culture and treatments MCF10A (ATCC) cells were maintained in DMEM/F-12 (Sigma-Aldrich, St. Louis, USA) supplemented with 5% horse serum (Sigma-Aldrich, St. Louis, USA), 20 ng/mL epidermal growth factor (PeproTech, London, UK), 0.5 μg/mL Hydrocortisone (Sigma-Aldrich, St. Louis, USA), 100 ng/mL Cholera toxin (Sigma-Aldrich, St. Louis, USA), 10 μg/mL insulin (Sigma-Aldrich, St. Louis, USA), 50 U/mL^1 penicillin, and 50 μg/mL streptomycin (St. Sigma-Aldrich, St. Louis, USA). MCF7 cells (ECACC) were cultured in DMEM high glucose (Sigma-Aldrich, St. Louis, USA) supplemented with 10% FBS, 0.01 mg/mL Insulin (Sigma-Aldrich, St. Louis, USA), and 2 mM L-glutamine. MDA-MB-231 cells were cultured in DMEM high glucose (Sigma-Aldrich, St. Louis, USA) supplemented with 10% FBS, 50 U/mL^1 penicillin, 50 μg/mL streptomycin, and 2 mM L-glutamine. U937 and THP-1 (ATCC, Manassas, USA) cells were cultured in RPMI-1640 medium (Sigma-Aldrich, St. Louis, USA) supplemented with 10% foetal bovine serum (FBS) (Sigma-Aldrich, St. Louis, USA), 50 U/mL penicillin, 50 μgml^−1 streptomycin (Sigma-Aldrich, St. Louis, USA), and 2 mM L-glutamine (Sigma-Aldrich, St. Louis, USA). All cells were cultured at 37° C., 5% CO2 in a humidified incubator and adherent cells seeded at an appropriate density 24 h prior to treatment. U937 cells were seeded at 5×10^5 cells/mL and treated immediately while THP-1 cells were seeded at 1×10^6 cells/mL and treated after 2 hours.
(§2) Sample preparation Cells were washed once in ice cold phosphate buffered saline (PBS) and then lysed in either RIPA buffer (Sigma-Aldrich, St. Louis, USAUSA) with RocheSTOP protease inhibitors (Roche, Basel, Switzerland) for protein analysis or directly lysed in TriReagent (Sigma-Aldrich, St. Louis, USAUSA) as per manufactures instructions for RNA analysis.
Immunoblotting Protein lysates were mixed with 5× Laemmli Buffer (0.3125 M Tris HCl (pH 6.8), 10% SDS, 50% glycerol, 25% 2-mercaptoethanol, 0.02% bromophenol blue) in a 1:4 ratio and boiled at 95° C. for 5 min. Samples were separated on an SDS polyacrylamide gel, transferred onto nitrocellulose membrane (GE Healthcare Life Sciences, Little Chalfont, UK) and blocked with 5% milk in Wash Buffer (Randox Laboratories Ltd., Crumlin, UK). Membranes were probed with commercial antibodies to spliced and unspliced XBP1 isoforms and Actin (Sigma-Aldrich, St. Louis, USA, 1:5000). Anti-rabbit (Jackson ImmunoResearch, Cambridge, UK) and anti-mouse (Jackson ImmunoResearch, Cambridge, UK; Sigma-Aldrich, St. Louis, USA) HRP-conjugated secondary antibodies were incubated for 45-60 min and the signal was visualized using western blotting luminol reagent (Thermofisher, Waltham, USA; Perkin-Elmer, Waltham, USA).

Assay [2] has as its system XBP1s, MCF7 cells. In words: Immunoblot of XBP1 isoforms in MCF7 cells. Conditions: 4μ8C 32 μM or MKC-8866 20 μM, 48 h. On the procedure: as §1, with “U937 cells were seeded at 5×10^5 cells/mL and treated immediately while THP-1 cells were seeded at 1×10^6 cells/mL and treated after 2 hours.” left out
Assay [3] relates to XBP1 splicing, MDA-MB-231 cells. In words: XBP1 biochip quantification of XBP1s and XBP1u in MDA-MB-231 lysates. To be noted: for XBP1s quantified by XBP1 biochip: 4μ8C 32 μM (p=0.035) or MKC-8866 20 μM (p=0.033); for Paclitaxel induced increase in XBP1s under IRE1α RNase inhibition: Paclitaxel 10 nM 48 h plus inhibitor, p<0.01; for XBP1u levels: Paclitaxel, MKC-8866 and/or 4μ8C treatment; for XBP1u protein levels during IRE1α inhibition: XBP1 biochip, p=0.71. The procedure:
(§3) Biochip-based determination of XBP1s and XBP1u. XBP1s and XBP1u levels and raw signal were quantified using the Evidence Investigator analyser (EV3602, Randox Laboratories Ltd., UK). Signals from defined discrete test regions were detected using digital imaging technology. The biochips were provided in wells in a carrier in a 3×3 format (9 reaction wells per carrier). A carrier handling tray supplied with the system accommodated 6 carriers. The total assay protocol was performed according to manufacturer's instructions. Briefly, RIPA lysed samples were diluted to 100 μL in RIPA buffer followed by dilution to 200 μL in XBP1 assay buffer and mixed well with gentle pipetting. 200 μL of XBP1 assay diluent was then applied to the surface of the biochip followed by 200 μL diluted sample or 100 μL calibrator/control per well. Following a 60-minute incubation at 37° C., 370 RPM in a thermoshaker (Randox Laboratories Ltd., Crumlin, UK) liquid contents were removed with a sharp flick and washed in a 2× quick, 4×2 min wash steps. 300 μL of HRP conjugated pan-XBP1 detector was applied to each well and another 60 min incubation at 37° C., 370 RPM in a thermoshaker was performed. Following another wash as above 250 μL of a 1:1 ratio of EV841 luminol and peroxide was applied to the surface of each biochip in a carrier and incubated away from direct light for 2 min. Carriers were then submitted to the Evidence Investigator, light emitted from each DTR detected by the CCD camera and signal quantified by the instrument software. Final values in pg/mg were obtained by dividing reported value (in pg) by total protein loaded per well, as determined by bicinchoninic acid (BCA) assay. Calibration curves, inferred values and goodness of fit were independently confirmed using R package nplr (0.1-7, Frederic Commo, https://cran.r-project.org/web/packages/nplr/index.html).
as §1, §2

Assay [4] relates to XBP1 splicing, MCF7 cells. In words: XBP1 biochip quantification of XBP1s and XBP1u in MCF7 lysates. Conditions: 48 h; for XBP1s quantified by XBP1 biochip: 4μ8C 32 μM (p=0.004) or MKC-8866 20 μM (p=0.008). The procedure:
as §3, with “https://cran.r-project.org/web/packages/nplr/index.html). […]” for “https://cran.r-project.org/web/packages/nplr/index.html).”

Assay [5] deals with XBP1 splicing, THP-1 cells. In words: XBP1 biochip and RT-PCR assessment of THP-1 cells after NLRP3 inflammasome activation. To be noted: for XBP1 splicing upon inflammasome activation: LPS 1 μg/ml 4 h followed by nigericin 10 μM 45 min (used together). On the procedure: as §3
Cell culture and treatments MCF10A (ATCC) cells were maintained in DMEM/F-12 (Sigma-Aldrich, St. Louis, USA) supplemented with 5% horse serum (Sigma-Aldrich, St. Louis, USA), 20 ng/mL epidermal growth factor (PeproTech, London, UK), 0.5 μg/mL Hydrocortisone (Sigma-Aldrich, St. Louis, USA), 100 ng/mL Cholera toxin (Sigma-Aldrich, St. Louis, USA), 10 μg/mL insulin (Sigma-Aldrich, St. Louis, USA), 50 U/mL^1 penicillin, and 50 μg/mL streptomycin (St. Sigma-Aldrich, St. Louis, USA). MCF7 cells (ECACC) were cultured in DMEM high glucose (Sigma-Aldrich, St. Louis, USA) supplemented with 10% FBS, 0.01 mg/mL Insulin (Sigma-Aldrich, St. Louis, USA), and 2 mM L-glutamine. MDA-MB-231 cells were cultured in DMEM high glucose (Sigma-Aldrich, St. Louis, USA) supplemented with 10% FBS, 50 U/mL^1 penicillin, 50 μg/mL streptomycin, and 2 mM L-glutamine. […]

The test system of assay [6] is NLRP3 mediated IL-1β release, THP-1 cells. In words: Immunoblot of IL-1β in conditioned media of THP-1 cells. To be noted: LPS and nigericin activated.

As to `O[C@H](CS)[C@H](O)CS` (racemic) [Dithiothreitol], the “XBP1s translation (immunoblot)” value in assay [1] is given as “upregulation”.

In the case of `Cc1cc(=O)oc2c(C=O)c(O)ccc12` [4μ8C], the “XBP1s (immunoblot) under IRE1α RNase inhibition” value in assay [2] is recorded as “reduction”. Moreover, the “relative potency of inhibition of XBP1s (XBP1 biochip)” value in assay [3] (MCF7 and MDA-MB-231, 4μ8C 32 μM versus MKC-8866 20 μM) is “more potent than MKC”. In assay [3] (MDA-MB-231, 48 h), the “XBP1s quantified by XBP1 biochip” value is given as “significant reductions” and the XBP1u levels entry was “no significant change”. Besides, in assay [3] (MDA-MB-231), the “Paclitaxel induced increase in XBP1s under IRE1α RNase inhibition” value is listed as “completely ablated” and the “XBP1u protein levels during IRE1α inhibition” value is on record as “largely unchanged”. Besides, the “XBP1s quantified by XBP1 biochip” value in assay [4] was “significant reductions”. Further, the “XBP1u protein expression level (average)” value in assay [4] (4μ8C 32 μM, significant upregulation, p=0.019) worked out at 81.1 µg/mg. In assay [1], the “XBP1s (immunoblot) under IRE1α RNase inhibition” value is “reduction”.

As for `C[C@H]1CCC/C=C/[C@@H]2C[C@H](O)C[C@H]2[C@H](O)/C=C/C(=O)O1` [Brefeldin A], in assay [1], the “XBP1s translation (immunoblot)” value is listed as “upregulation”.

For the compound `COc1cc2c(C)c(CC(=O)N3CCOCC3)c(=O)oc2c(C=O)c1O` [MKC-8866], the “XBP1s (immunoblot) under IRE1α RNase inhibition” value in assay [2] and in assay [1] was “reduction” each time. Also, in assay [5] (LPS and nigericin activated, p=0.048), the “XBP1s expression upon MKC-8866 mediated inhibition (XBP1 biochip)” value is “significant changes”. For the same compound, in assay [5] (mean=46.2 μg/mg over treatments, one-way ANOVA p=0.408), the “XBP1u levels (XBP1 biochip)” value is on record as “largely unchanged”. Further, the “XBP1s quantified by XBP1 biochip” value in assay [3] (MDA-MB-231, 48 h) is “significant reductions”; in assay [4], “significant reductions”. In addition, in assay [3] (MDA-MB-231), the “Paclitaxel induced increase in XBP1s under IRE1α RNase inhibition” value is recorded as “completely ablated”. Further, the XBP1u levels result in assay [3] (MDA-MB-231, 48 h) is recorded as “no significant change”. Besides, in assay [3] (MDA-MB-231), the “XBP1u protein levels during IRE1α inhibition” value is recorded as “largely unchanged”. The IL-1β release entry in assay [6] is listed as “ablates”.

Compound `CC(=O)O[C@H]1C(=O)[C@@]2(C)[C@H]([C@H](OC(=O)c3ccccc3)[C@]3(O)C[C@H](OC(=O)[C@H](O)[C@@H](NC(=O)c4ccccc4)c4ccccc4)C(C)=C1C3(C)C)[C@]1(OC(C)=O)CO[C@@H]1C[C@@H]2O` [Paclitaxel] came in with an XBP1s expression in assay [3] (MDA-MB-231, Paclitaxel 10 nM, 48 h, from 66.9±16.2 without Paclitaxel, p=0.036) of 125.0 ± 14.1 µg/mg. The XBP1u levels entry in assay [3] (MDA-MB-231, 48 h) is on record as “no significant change”.

`C/C=C(/C)C(=O)O[C@H]1C(C)=C2[C@H]([C@@H]1OC(=O)CCCCCCC)[C@@](C)(OC(C)=O)C[C@H](OC(=O)CCC)[C@@]1(O)[C@H]2OC(=O)[C@@]1(C)O` [Thapsigargin]: in assay [1], the “XBP1s translation (immunoblot)” value is “upregulation”.

As for `CO[C@@H]1C[C@@H](C[C@H]2CC[C@H](C)[C@H]([C@@H](C)C(=O)O)O2)O[C@]2(O[C@](C)([C@H]3CC[C@@](C)([C@@H]4O[C@@H]([C@H]5O[C@@](O)(CO)[C@H](C)C[C@@H]5C)C[C@@H]4C)O3)C[C@H]2C)[C@@H]1C` [nigericin, Nigericin], the “XBP1 splicing upon inflammasome activation” value in assay [5] is listed as “increase”.

As to Lipopolysaccharide [LPS], the “XBP1 splicing upon inflammasome activation” value in assay [5] is “increase”.

In the case of Tunicamycin, the “XBP1s translation (immunoblot)” value in assay [1] is recorded as “upregulation”.
